Some test systems named below: 786-0 renal; ACHN renal; COLO 205 colon; DU-145 prostate; HCT-15 colon; HT29 colon; IGROV1 ovarian; MOLT-4 leukemia; NCI-H226 lung; NCI-H23 lung; NCI-H522 lung; NCI/ADR-RES ovarian; OVCAR-4 ovarian; OVCAR-8 ovarian; RPMI-8226 leukemia; RXF 393 renal; SR leukemia; TK-10 renal; UACC-257 melanoma.
What all share (experiment): NCI tumour cell line growth inhibition, 48 h

The source of these data is PubChem BioAssay (NCI).

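Dose response: 5 concentrations. Exposure: 48 h. Format: 96-well plates. Endpoint: linear interpolation; highest concentration if not reached. TGI: total growth inhibition.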 Bounds are passed on as bounds.

Take `Nc1ncc(Br)c(NCC2(CO)CCC2)n1`: the TGI with 786-0 renal, in the assay with ACHN renal, in the assay with COLO 205 colon, with DU-145 prostate, with HCT-15 colon and in the assay on HT29 colon was greater than 100 µM throughout. The TGI in the assay with IGROV1 ovarian, in the assay with MOLT-4 leukemia, in the assay with NCI-H226 lung, in the assay on NCI-H23 lung, in the assay on NCI-H522 lung and with NCI/ADR-RES ovarian was greater than 100 µM each time. The TGI with OVCAR-4 ovarian, in the assay on OVCAR-8 ovarian, in the assay with RPMI-8226 leukemia, with RXF 393 renal, in the assay on SR leukemia and in the assay on TK-10 renal was greater than 100 µM throughout. Also, the TGI in the assay on UACC-257 melanoma was greater than 100 µM.
Regarding `NC(N)=Nc1ccc(-c2ccc(N=C(N)N)cc2)cc1`, the TGI was greater than 100 µM in the assay on 786-0 renal; greater than 100 µM with ACHN renal; 47 µM with COLO 205 colon; greater than 76.1 µM with DU-145 prostate; greater than 100 µM in the assay on HCT-15 colon; greater than 100 µM with HT29 colon. Besides, the TGI was greater than 89.6 µM in the assay on IGROV1 ovarian; greater than 100 µM with MOLT-4 leukemia; 65.4 µM in the assay with NCI-H226 lung; greater than 100 µM in the assay on NCI-H23 lung; greater than 100 µM in the assay with NCI-H522 lung; greater than 100 µM with NCI/ADR-RES ovarian. For the same molecule, the TGI in the assay on OVCAR-4 ovarian is greater than 100 µM; with OVCAR-8 ovarian it was greater than 100 µM; in the assay on RPMI-8226 leukemia it was 66.3 µM; in the assay on RXF 393 renal, greater than 100 µM; in the assay on SR leukemia, greater than 100 µM; in the assay with TK-10 renal it was 36.5 µM. This molecule gave a TGI with UACC-257 melanoma greater than 100 µM.
In the case of `O=C(Nc1ccccc1)OCCN=C1c2ccccc2C(Br)C(Br)c2ccccc21` (stereo not drawn), the TGI in the assay with 786-0 renal is 8.18 µM; in the assay with ACHN renal it was 20.6 µM; with COLO 205 colon it was 13 µM; in the assay on DU-145 prostate, 16 µM; with HCT-15 colon it was greater than 24.2 µM; with HT29 colon, 14.6 µM. In addition, the TGI in the assay with IGROV1 ovarian was determined as 10.6 µM; in the assay with MOLT-4 leukemia it was 5.06 µM; with NCI-H226 lung, 19.2 µM; in the assay on NCI-H23 lung it was 25.9 µM; in the assay on NCI-H522 lung it was 8.41 µM; in the assay with NCI/ADR-RES ovarian, 19.4 µM. Moreover, the TGI with OVCAR-4 ovarian was found to be 21.9 µM; with OVCAR-8 ovarian, 13 µM; in the assay with RPMI-8226 leukemia, 19.9 µM; in the assay on RXF 393 renal it was 9.69 µM; in the assay with SR leukemia, 7.08 µM; in the assay with TK-10 renal it was 18.5 µM. This molecule yielded a TGI in the assay on UACC-257 melanoma of 15.6 µM.
Take `COc1cccc2c1C(=O)C1=C(C2=O)C(O)CC(C)(C)O1` (stereo not drawn): the TGI with 786-0 renal is greater than 100 µM; in the assay on ACHN renal it was greater than 100 µM; in the assay on COLO 205 colon it was 54 µM; with DU-145 prostate, greater than 100 µM; in the assay with HCT-15 colon, greater than 100 µM; in the assay on HT29 colon it was greater than 100 µM. Besides, the TGI was greater than 100 µM in the assay with IGROV1 ovarian; 82.6 µM with MOLT-4 leukemia; greater than 100 µM in the assay with NCI-H226 lung; 74.5 µM in the assay with NCI-H23 lung; 62.8 µM in the assay on NCI-H522 lung; 75.7 µM with NCI/ADR-RES ovarian. Further, the TGI in the assay with OVCAR-4 ovarian is 55.8 µM; in the assay with OVCAR-8 ovarian, 91.5 µM; in the assay on RPMI-8226 leukemia, 60.4 µM; in the assay on RXF 393 renal, greater than 100 µM; in the assay on SR leukemia it was 46.3 µM; in the assay with TK-10 renal it was greater than 100 µM. The TGI with UACC-257 melanoma is 50 µM.
With `CC(=O)Oc1c(C)c2c(c3ncccc13)OC(C)C2` (stereo not drawn), the TGI came to 26.7 µM with 786-0 renal; 24.5 µM in the assay on ACHN renal; 35.7 µM with COLO 205 colon; 29.8 µM with DU-145 prostate; 24.5 µM with HCT-15 colon; 36.8 µM in the assay with HT29 colon. Further, the TGI is 20.1 µM in the assay with IGROV1 ovarian; 25.9 µM in the assay with MOLT-4 leukemia; 32.8 µM in the assay on NCI-H226 lung; 32.9 µM in the assay with NCI-H23 lung; 15.4 µM in the assay on NCI-H522 lung; 35.9 µM in the assay on NCI/ADR-RES ovarian. Besides, the TGI turned out to be 29.9 µM in the assay with OVCAR-4 ovarian; 27.5 µM in the assay on OVCAR-8 ovarian; 45.1 µM in the assay with RPMI-8226 leukemia; 30.9 µM in the assay on RXF 393 renal; 22.7 µM in the assay on SR leukemia; 49.2 µM in the assay on TK-10 renal. The molecule also showed a TGI in the assay on UACC-257 melanoma of 28.6 µM.
On to `Cn1c2ccc([N+](=O)[O-])cc2c(=O)n1Cc1ccccc1F`, for which the TGI with 786-0 renal, with ACHN renal, in the assay with COLO 205 colon, in the assay with DU-145 prostate, with HCT-15 colon and in the assay with HT29 colon was greater than 100 µM in each case. Besides, the TGI is greater than 100 µM in the assay with IGROV1 ovarian; greater than 100 µM with MOLT-4 leukemia; 92.4 µM with NCI-H226 lung; greater than 100 µM with NCI-H23 lung; 71.5 µM with NCI-H522 lung; 76.3 µM with NCI/ADR-RES ovarian. In addition, the TGI in the assay with OVCAR-4 ovarian, with OVCAR-8 ovarian, in the assay on RPMI-8226 leukemia, in the assay with RXF 393 renal, with SR leukemia and with TK-10 renal was greater than 100 µM each time. This molecule showed a TGI in the assay on UACC-257 melanoma greater than 100 µM.
On to `S=C(N1CCN(c2ccc(Cl)c(Cl)c2)CC1)N1CCN(c2ccc(Cl)c(Cl)c2)CC1`, for which the TGI with 786-0 renal came out at 22.7 µM; with ACHN renal, 27.4 µM; with COLO 205 colon, 22.4 µM; in the assay with DU-145 prostate it was 28.1 µM; with HCT-15 colon, 28.8 µM; in the assay with HT29 colon, 21.3 µM. In addition, the TGI was found to be 22.5 µM in the assay on IGROV1 ovarian; 19.9 µM in the assay with MOLT-4 leukemia; 23.8 µM in the assay on NCI-H226 lung; 29.7 µM in the assay on NCI-H23 lung; 22.8 µM with NCI-H522 lung; 30.3 µM in the assay on NCI/ADR-RES ovarian. Also, the TGI came to 28.3 µM in the assay with OVCAR-4 ovarian; 28.3 µM with OVCAR-8 ovarian; 39.4 µM with RPMI-8226 leukemia; 35.1 µM in the assay on RXF 393 renal; 5.82 µM in the assay with SR leukemia; 26.1 µM in the assay with TK-10 renal. Besides, in the assay with UACC-257 melanoma, the TGI was found to be 30.9 µM.
